From the supplement of paper PMC10307832

What was measured:
Assay in all cases: relative viability (nuclei count vs DMSO), 5 days (fraction); higher = more cells survive
[1] = compound: CC1=C(C(=O)N2C=CSC2=N1)CCN3CCC(=C(C4=CC=CC=C4)C5=CC=C(C=C5)F)CC3 + CS(=O)(=O)CCNCc1ccc(-c2ccc3ncnc(Nc4ccc(OCc5cccc(F)c5)c(Cl)c4)c3c2)o1 [Lapatinib] (partner 2 µM)
Summary of the method: (§1)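 Medians of duplicate plates are given as relative viability. That measure is the nuclei count in treated wells divided by the count in vehicle wells. Counts were taken on 4× images of lung cancer cell lines in 1536-well plates, 5 days after pin-tool dosing the day after seeding with one drug alone or a fixed anchor-drug dose plus five library-drug doses (not always all listed) in √10 steps.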

[2] = compound: CC1=C(C(=O)N2C=CSC2=N1)CCN3CCC(=C(C4=CC=CC=C4)C5=CC=C(C=C5)F)CC3 + C[C@@H](Oc1cc(-c2cnn(C3CCNCC3)c2)cnc1N)c1c(Cl)ccc(F)c1Cl [Crizotinib] (partner 1 µM)
Summary of the method: as §1

[3] = compound: CC1=C(C(=O)N2C=CSC2=N1)CCN3CCC(=C(C4=CC=CC=C4)C5=CC=C(C=C5)F)CC3 + Cc1nc(Nc2ncc(C(=O)Nc3c(C)cccc3Cl)s2)cc(N2CCN(CCO)CC2)n1 [Dasatinib] (partner 0.075 µM)
Summary of the method: as §1

[4] = compound: CC1=C(C(=O)N2C=CSC2=N1)CCN3CCC(=C(C4=CC=CC=C4)C5=CC=C(C=C5)F)CC3 + Nc1nc2[nH]cc(CCc3ccc(C(=O)N[C@@H](CCC(=O)O)C(=O)O)cc3)c2c(=O)[nH]1 [Pemetrexed] (partner 0.2 µM)
Summary of the method: as §1

Cell Line	relative viability ([1]; first compound 0.08 µM)	relative viability ([1]; first compound 0.253 µM)	relative viability ([1]; first compound 0.8 µM)	relative viability ([1]; first compound 2.53 µM)	relative viability ([1]; first compound 8 µM)	relative viability ([2]; first compound 0.08 µM)	relative viability ([2]; first compound 0.253 µM)	relative viability ([2]; first compound 0.8 µM)	relative viability ([2]; first compound 2.53 µM)	relative viability ([2]; first compound 8 µM)	relative viability ([3]; first compound 0.08 µM)	relative viability ([3]; first compound 0.253 µM)	relative viability ([3]; first compound 0.8 µM)	relative viability ([3]; first compound 2.53 µM)	relative viability ([3]; first compound 8 µM)	relative viability ([4]; first compound 0.08 µM)	relative viability ([4]; first compound 0.253 µM)	relative viability ([4]; first compound 0.8 µM)	relative viability ([4]; first compound 2.53 µM)	relative viability ([4]; first compound 8 µM)
NCI-H838	0.806	0.826	0.917	1.43	0.596	0.583	0.854	0.837	0.925	0.616	0.295	0.27	0.258	0.31	0.282	0.254	0.252	0.259	0.246	0.223
NCI-H1648	–	–	–	–	–	–	–	–	–	–	–	–	–	–	–	0.714	0.657	0.749	0.712	0.423
NCI-H727	0.778	0.674	0.757	0.984	0.553	0.846	0.934	0.741	0.948	0.59	0.319	0.338	0.394	0.396	0.319	–	–	–	–	–
SW 900	–	–	–	–	–	–	–	–	–	–	0.399	0.634	0.634	0.584	0.41	0.436	0.532	0.484	0.5	0.281
ABC-1	1.11	1.18	1.14	1.3	0.674	1.13	1.42	0.931	0.722	0.748	0.622	0.606	0.455	0.512	0.467	–	–	–	–	–
NCI-H1793	0.793	0.535	0.748	0.864	0.575	–	–	–	–	–	0.363	0.328	0.415	0.467	0.233	0.72	0.715	0.796	1.12	0.794
NCI-H1395	1.11	0.97	0.908	1	0.821	–	–	–	–	–	0.417	0.406	0.416	0.394	0.438	0.797	0.813	0.72	0.885	0.806
NCI-H522	–	–	–	–	–	–	–	–	–	–	0.901	0.549	0.998	0.855	0.733	0.958	0.997	0.964	0.914	0.764
A549	1.06	0.884	0.922	1.23	0.797	0.855	0.777	0.665	0.64	0.579	–	–	–	–	–	–	–	–	–	–
Calu-6	1.04	0.925	1.1	1.4	0.817	0.713	0.864	0.631	0.782	0.576	–	–	–	–	–	–	–	–	–	–
NCI-H1703	1.57	0.717	1.23	1.69	0.62	0.723	0.55	0.777	0.786	0.625	–	–	–	–	–	–	–	–	–	–
ChaGo-K-1	–	–	–	–	–	1.17	1.32	1.29	0.706	1.03	0.598	0.635	0.59	0.639	0.547	0.277	0.27	0.259	0.267	0.236
